Activity calls are given as the source filed them. Rule as the data show it, for most assays here: actives have a measured Kd and inactives only a lower limit.
Tests used:
[1] = biological target: Serine/threonine-protein kinase PAK 2 (Homo sapiens, UniProt Q13177)
[2] = biological target: Cyclin-dependent kinase 3 (Homo sapiens, UniProt Q00526)
[3] = biological target: DNA topoisomerase 2-beta (Homo sapiens, UniProt Q02880)
[4] = biological target: Ephrin type-A receptor 2 (Homo sapiens, UniProt P29317)
[5] = biological target: Cyclin-dependent kinase 1 (Homo sapiens, UniProt P06493)
[6] = biological target: Cyclin-dependent kinase 12 (Homo sapiens, UniProt Q9NYV4)
[7] = biological target: NADH dehydrogenase [ubiquinone] 1 alpha subcomplex subunit 13 (Homo sapiens, UniProt Q9P0J0)
[8] = biological target: AP2-associated protein kinase 1 (Homo sapiens, UniProt Q2M2I8)
[9] = biological target: BMP-2-inducible protein kinase (Homo sapiens, UniProt Q9NSY1)
[10] = biological target: T1, Serine/threonine-protein kinase TAO2 (Homo sapiens, UniProt Q9UL54)
T1 sequence (Q9UL54 whole entry): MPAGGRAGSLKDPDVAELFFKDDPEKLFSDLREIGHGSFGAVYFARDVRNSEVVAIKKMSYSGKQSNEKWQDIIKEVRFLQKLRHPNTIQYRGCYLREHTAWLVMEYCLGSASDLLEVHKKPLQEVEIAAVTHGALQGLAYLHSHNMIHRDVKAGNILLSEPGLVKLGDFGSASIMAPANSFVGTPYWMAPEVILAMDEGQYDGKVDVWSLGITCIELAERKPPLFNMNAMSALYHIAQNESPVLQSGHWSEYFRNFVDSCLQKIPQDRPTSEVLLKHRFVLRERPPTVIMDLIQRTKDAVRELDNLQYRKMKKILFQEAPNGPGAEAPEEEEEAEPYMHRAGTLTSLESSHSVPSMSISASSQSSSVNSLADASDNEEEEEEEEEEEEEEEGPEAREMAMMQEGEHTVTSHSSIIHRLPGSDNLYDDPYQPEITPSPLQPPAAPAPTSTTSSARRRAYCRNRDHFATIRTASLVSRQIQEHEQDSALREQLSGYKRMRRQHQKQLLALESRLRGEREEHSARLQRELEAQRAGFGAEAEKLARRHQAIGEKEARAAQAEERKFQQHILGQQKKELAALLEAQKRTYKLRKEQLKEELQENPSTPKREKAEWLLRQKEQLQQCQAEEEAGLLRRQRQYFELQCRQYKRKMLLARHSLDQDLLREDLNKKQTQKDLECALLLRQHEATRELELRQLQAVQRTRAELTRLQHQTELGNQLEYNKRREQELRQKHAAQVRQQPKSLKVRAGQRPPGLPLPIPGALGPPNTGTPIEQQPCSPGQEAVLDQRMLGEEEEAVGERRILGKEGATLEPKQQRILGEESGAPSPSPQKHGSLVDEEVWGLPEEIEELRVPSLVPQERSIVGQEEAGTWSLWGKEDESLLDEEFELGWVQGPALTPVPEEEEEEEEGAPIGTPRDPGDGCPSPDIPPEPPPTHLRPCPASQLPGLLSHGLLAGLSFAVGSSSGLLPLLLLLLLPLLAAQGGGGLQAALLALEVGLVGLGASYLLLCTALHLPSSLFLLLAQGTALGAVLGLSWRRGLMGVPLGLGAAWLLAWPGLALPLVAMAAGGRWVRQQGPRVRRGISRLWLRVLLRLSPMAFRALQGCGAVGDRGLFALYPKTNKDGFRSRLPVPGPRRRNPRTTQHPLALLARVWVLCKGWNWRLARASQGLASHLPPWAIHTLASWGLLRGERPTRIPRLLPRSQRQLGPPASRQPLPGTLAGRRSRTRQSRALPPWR

[11] = biological target: T2, Dual specificity mitogen-activated protein kinase kinase 6 (Homo sapiens, UniProt P52564)
T2 sequence (P52564 whole entry): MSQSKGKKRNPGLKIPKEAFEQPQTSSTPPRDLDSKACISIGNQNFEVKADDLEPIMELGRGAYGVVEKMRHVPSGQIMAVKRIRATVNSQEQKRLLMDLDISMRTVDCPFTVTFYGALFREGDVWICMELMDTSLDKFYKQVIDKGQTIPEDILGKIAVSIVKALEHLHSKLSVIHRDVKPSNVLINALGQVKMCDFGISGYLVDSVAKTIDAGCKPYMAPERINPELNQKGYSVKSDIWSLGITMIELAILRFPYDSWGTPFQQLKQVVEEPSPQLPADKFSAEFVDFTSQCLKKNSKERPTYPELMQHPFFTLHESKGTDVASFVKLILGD

[12] = biological target: Myosin-14 (Homo sapiens, UniProt Q7Z406)
[13] = biological target: Deoxycytidine kinase (Homo sapiens, UniProt P27707)
[14] = biological target: Citron Rho-interacting kinase (Homo sapiens, UniProt O14578)
[15] = biological target: DnaJ homolog subfamily A member 1 (Homo sapiens, UniProt P31689)
Also: in the data inactive means no Kd found up to 30 µM.

Chain of Deoxycytidine kinase (P27707 whole entry): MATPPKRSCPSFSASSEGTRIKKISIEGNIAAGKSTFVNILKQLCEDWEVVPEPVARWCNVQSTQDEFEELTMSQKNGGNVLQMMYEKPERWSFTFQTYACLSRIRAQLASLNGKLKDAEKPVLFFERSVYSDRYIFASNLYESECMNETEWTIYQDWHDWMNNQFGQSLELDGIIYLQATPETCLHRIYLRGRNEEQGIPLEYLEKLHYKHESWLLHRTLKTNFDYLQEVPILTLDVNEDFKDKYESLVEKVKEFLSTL
Chain of DnaJ homolog subfamily A member 1 (P31689 whole entry): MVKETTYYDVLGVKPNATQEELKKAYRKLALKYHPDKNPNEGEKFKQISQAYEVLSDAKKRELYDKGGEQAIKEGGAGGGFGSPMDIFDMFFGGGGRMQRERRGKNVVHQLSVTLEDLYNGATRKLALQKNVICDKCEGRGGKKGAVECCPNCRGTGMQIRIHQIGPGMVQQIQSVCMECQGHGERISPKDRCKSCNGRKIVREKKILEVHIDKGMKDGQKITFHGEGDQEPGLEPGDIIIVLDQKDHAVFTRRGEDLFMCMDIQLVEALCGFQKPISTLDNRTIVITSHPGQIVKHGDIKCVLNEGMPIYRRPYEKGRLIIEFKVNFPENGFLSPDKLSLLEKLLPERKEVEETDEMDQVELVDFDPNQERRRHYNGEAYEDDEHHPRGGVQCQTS
Chain of Serine/threonine-protein kinase PAK 2 (Q13177 whole entry): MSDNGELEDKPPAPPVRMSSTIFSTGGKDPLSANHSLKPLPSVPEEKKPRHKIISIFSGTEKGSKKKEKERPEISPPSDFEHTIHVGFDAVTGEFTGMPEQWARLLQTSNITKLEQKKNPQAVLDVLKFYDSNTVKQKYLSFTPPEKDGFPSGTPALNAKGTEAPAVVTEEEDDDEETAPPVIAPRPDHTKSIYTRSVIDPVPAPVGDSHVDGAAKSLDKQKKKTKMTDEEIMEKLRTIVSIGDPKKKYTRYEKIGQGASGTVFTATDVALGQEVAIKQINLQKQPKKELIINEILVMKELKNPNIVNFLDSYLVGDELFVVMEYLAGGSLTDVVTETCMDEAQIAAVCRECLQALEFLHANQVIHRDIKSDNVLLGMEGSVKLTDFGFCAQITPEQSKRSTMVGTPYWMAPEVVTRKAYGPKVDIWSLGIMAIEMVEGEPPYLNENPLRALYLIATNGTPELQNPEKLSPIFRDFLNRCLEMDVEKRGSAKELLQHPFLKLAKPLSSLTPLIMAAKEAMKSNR
Chain of Cyclin-dependent kinase 12 (Q9NYV4 whole entry): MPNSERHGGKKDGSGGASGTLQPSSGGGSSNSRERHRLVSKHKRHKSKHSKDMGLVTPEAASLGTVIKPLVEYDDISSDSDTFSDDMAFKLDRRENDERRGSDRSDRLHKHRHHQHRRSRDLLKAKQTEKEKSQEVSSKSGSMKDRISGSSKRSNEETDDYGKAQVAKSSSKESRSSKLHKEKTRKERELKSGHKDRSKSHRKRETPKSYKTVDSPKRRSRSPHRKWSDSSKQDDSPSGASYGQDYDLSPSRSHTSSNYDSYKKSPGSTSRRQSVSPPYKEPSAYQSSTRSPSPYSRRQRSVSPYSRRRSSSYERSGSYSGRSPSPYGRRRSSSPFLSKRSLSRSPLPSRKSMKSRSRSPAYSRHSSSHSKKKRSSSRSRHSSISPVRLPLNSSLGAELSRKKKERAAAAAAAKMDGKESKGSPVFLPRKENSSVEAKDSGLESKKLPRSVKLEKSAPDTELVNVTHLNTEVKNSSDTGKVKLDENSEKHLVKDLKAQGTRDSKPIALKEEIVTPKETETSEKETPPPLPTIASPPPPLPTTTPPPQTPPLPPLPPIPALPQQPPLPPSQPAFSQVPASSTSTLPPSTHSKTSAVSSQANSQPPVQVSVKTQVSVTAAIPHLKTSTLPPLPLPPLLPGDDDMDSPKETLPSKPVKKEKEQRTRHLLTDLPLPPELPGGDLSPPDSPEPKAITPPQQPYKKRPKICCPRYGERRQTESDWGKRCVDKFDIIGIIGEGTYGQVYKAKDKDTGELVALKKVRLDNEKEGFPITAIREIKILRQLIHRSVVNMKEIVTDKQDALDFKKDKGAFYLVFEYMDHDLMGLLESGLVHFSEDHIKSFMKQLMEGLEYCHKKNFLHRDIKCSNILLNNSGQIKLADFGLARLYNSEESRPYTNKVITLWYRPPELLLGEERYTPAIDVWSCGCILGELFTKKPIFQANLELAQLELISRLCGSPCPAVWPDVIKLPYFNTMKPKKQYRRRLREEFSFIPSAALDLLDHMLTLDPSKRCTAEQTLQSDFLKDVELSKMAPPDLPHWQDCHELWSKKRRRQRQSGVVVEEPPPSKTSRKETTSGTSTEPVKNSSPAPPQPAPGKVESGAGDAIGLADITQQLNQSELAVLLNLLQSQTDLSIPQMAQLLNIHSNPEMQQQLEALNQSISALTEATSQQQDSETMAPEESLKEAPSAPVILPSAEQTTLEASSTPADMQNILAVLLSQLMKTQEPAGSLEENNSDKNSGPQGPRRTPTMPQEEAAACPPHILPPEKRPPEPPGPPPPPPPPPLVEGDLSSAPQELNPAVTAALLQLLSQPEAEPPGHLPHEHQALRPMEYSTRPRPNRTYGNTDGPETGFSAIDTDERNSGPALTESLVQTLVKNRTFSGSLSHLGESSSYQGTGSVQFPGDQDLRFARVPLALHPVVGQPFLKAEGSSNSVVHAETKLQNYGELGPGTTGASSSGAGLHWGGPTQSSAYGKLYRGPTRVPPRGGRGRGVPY
Chain of Cyclin-dependent kinase 1 (P06493 whole entry): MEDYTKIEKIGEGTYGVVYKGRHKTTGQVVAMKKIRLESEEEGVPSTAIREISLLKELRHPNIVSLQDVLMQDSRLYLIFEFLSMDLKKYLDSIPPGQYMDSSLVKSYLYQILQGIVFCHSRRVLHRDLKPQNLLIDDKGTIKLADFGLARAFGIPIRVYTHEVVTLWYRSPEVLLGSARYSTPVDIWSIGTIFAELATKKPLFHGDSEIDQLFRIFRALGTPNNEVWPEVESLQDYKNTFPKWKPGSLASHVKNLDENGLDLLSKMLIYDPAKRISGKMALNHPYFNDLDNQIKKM
Chain of Myosin-14 (Q7Z406 whole entry): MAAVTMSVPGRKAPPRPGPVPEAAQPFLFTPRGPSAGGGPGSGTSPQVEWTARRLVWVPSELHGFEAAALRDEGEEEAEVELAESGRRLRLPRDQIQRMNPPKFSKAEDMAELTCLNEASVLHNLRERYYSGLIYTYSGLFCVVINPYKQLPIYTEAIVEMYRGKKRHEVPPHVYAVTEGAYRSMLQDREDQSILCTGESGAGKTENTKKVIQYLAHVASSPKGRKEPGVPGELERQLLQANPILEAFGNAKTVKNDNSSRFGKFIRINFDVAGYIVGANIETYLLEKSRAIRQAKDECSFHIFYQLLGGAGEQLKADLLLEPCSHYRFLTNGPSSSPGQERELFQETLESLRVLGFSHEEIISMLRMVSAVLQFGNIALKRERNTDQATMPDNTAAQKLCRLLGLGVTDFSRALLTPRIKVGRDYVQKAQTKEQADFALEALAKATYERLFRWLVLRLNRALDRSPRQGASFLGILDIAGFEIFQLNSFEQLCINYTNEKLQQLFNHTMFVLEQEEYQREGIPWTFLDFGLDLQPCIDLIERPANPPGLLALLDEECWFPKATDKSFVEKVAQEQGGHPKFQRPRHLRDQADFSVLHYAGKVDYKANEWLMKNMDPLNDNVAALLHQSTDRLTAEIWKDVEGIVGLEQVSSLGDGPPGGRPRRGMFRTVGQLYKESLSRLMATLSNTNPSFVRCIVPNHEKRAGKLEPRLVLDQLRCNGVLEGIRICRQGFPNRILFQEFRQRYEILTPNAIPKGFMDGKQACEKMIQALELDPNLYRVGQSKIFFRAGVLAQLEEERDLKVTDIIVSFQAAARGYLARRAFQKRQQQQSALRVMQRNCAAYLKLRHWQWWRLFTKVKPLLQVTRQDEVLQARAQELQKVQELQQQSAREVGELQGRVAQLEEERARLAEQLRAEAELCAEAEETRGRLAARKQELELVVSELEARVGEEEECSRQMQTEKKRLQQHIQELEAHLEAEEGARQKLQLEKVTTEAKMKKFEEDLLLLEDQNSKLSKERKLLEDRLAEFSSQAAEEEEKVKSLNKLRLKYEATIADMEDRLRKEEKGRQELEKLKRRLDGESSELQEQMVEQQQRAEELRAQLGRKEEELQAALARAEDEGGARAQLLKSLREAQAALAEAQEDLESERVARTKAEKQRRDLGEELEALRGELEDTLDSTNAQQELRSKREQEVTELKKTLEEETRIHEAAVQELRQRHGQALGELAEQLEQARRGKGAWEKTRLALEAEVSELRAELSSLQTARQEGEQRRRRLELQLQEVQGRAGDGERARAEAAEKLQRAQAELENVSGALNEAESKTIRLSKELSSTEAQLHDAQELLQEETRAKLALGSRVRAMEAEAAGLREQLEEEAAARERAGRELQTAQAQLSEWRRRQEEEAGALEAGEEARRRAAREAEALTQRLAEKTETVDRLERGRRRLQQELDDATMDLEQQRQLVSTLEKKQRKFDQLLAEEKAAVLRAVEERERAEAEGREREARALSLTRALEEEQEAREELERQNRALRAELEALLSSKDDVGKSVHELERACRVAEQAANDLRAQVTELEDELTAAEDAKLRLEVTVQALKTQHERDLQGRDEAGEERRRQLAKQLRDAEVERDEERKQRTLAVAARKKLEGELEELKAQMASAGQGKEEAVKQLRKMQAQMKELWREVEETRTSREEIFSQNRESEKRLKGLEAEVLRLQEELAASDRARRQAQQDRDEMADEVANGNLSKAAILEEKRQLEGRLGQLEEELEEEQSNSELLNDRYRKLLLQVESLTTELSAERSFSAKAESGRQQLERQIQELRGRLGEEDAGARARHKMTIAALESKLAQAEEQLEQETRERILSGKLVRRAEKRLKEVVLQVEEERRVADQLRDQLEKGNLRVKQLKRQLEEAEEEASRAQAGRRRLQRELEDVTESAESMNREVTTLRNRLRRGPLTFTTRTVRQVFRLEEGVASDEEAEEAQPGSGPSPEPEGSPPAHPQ

## COC(=O)N[C@@H](C)CNc1nccc(-c2cn(C(C)C)nc2-c2cc(Cl)cc(NS(C)(=O)=O)c2F)n1 [ENCORAFENIB]
[1]
  Kd: > 30 µM (inactive)
[2]
  Kd: > 30 µM (inactive)
[3]
  Kd: > 30 µM (inactive)
[4]
  Kd: > 30 µM (inactive)
[5]
  Kd: > 30 µM (inactive)
[6]
  Kd: > 30 µM (inactive)
[7]
  Kd: > 30 µM (inactive)
[8]
  Kd: > 30 µM (inactive)
[9]
  Kd: > 30 µM (inactive)
[10]
  Kd: > 30 µM (inactive)
[11]
  Kd: > 30 µM (inactive)
[12]
  Kd: > 30 µM (inactive)
[13]
  Kd: > 30 µM (inactive)
[14]
  Kd: > 30 µM (inactive)
[15]
  Kd: > 30 µM (inactive)

## COCCNCc1ccc(-c2cc3nccc(Oc4ccc(NC(=S)NC(=O)Cc5ccc(F)cc5)cc4F)c3s2)nc1 [GLESATINIB]
[1]
  Kd: > 30 µM (inactive)
[2]
  Kd: > 30 µM (inactive)
[3]
  Kd: > 30 µM (inactive)
[4]
  Kd: > 30 µM (inactive)
[5]
  Kd: > 30 µM (inactive)
[6]
  Kd: > 30 µM (inactive)
[7]
  Kd: > 30 µM (inactive)
[8]
  Kd: > 30 µM (inactive)
[9]
  Kd: > 30 µM (inactive)
[10]
  Kd: > 30 µM (inactive)
[11]
  Kd: > 30 µM (inactive)
[12]
  Kd: > 30 µM (inactive)
[13]
  Kd: > 30 µM (inactive)
[14]
  Kd: > 30 µM (inactive)
[15]
  Kd: > 30 µM (inactive)

## CO[C@H]1C[C@@H]2CC[C@@H](C)[C@@](O)(O2)C(=O)C(=O)N2CCCC[C@H]2C(=O)O[C@H]([C@H](C)C[C@@H]2CC[C@@H](OCCO)[C@H](OC)C2)CC(=O)[C@H](C)/C=C(\C)[C@@H](O)[C@@H](OC)C(=O)[C@H](C)C[C@H](C)/C=C/C=C/C=C/1C [EVEROLIMUS]
[1]
  Kd: > 30 µM (inactive)
[2]
  Kd: > 30 µM (inactive)
[3]
  Kd: > 30 µM (inactive)
[4]
  Kd: > 30 µM (inactive)
[5]
  Kd: > 30 µM (inactive)
[6]
  Kd: > 30 µM (inactive)
[7]
  Kd: > 30 µM (inactive)
[8]
  Kd: > 30 µM (inactive)
[9]
  Kd: > 30 µM (inactive)
[10]
  Kd: > 30 µM (inactive)
[11]
  Kd: > 30 µM (inactive)
[12]
  Kd: > 30 µM (inactive)
[13]
  Kd: > 30 µM (inactive)
[14]
  Kd: > 30 µM (inactive)
[15]
  Kd: > 30 µM (inactive)

## CCN1CCN(Cc2ccc(-c3cc4c(N[C@H](C)c5ccccc5)ncnc4[nH]3)cc2)CC1 [AEE-788]
[1]
  Kd: > 30 µM (inactive)
[2]
  Kd: > 30 µM (inactive)
[3]
  Kd: > 30 µM (inactive)
[4]
  Kd: > 30 µM (inactive)
[5]
  Kd: > 30 µM (inactive)
[6]
  Kd: > 30 µM (inactive)
[7]
  Kd: > 30 µM (inactive)
[8]
  Kd: > 30 µM (inactive)
[9]
  Kd: > 30 µM (inactive)
[10]
  Kd: > 30 µM (inactive)
[11]
  Kd: > 30 µM (inactive)
[12]
  Kd: > 30 µM (inactive)
[13]
  Kd: > 30 µM (inactive)
[14]
  Kd: > 30 µM (inactive)
[15]
  Kd: > 30 µM (inactive)

## CC(=O)Nc1cccc(-n2c(=O)n(C3CC3)c(=O)c3c(Nc4ccc(I)cc4F)n(C)c(=O)c(C)c32)c1 [TRAMETINIB]
[1]
  Kd: > 30 µM (inactive)
[2]
  Kd: > 30 µM (inactive)
[3]
  Kd: > 30 µM (inactive)
[4]
  Kd: > 30 µM (inactive)
[5]
  Kd: > 30 µM (inactive)
[6]
  Kd: > 30 µM (inactive)
[7]
  Kd: > 30 µM (inactive)
[8]
  Kd: > 30 µM (inactive)
[9]
  Kd: > 30 µM (inactive)
[10]
  Kd: > 30 µM (inactive)
[11]
  Kd: > 30 µM (inactive)
[12]
  Kd: > 30 µM (inactive)
[13]
  Kd: > 30 µM (inactive)
[14]
  Kd: > 30 µM (inactive)
[15]
  Kd: > 30 µM (inactive)

## N[C@@H]1CCCN(c2c(/C=C3\SC(=O)NC3=O)cccc2-c2ccccc2)C1
[1]
  Kd: > 30 µM (inactive)
[2]
  Kd: > 30 µM (inactive)
[3]
  Kd: > 30 µM (inactive)
[4]
  Kd: > 30 µM (inactive)
[5]
  Kd: > 30 µM (inactive)
[6]
  Kd: > 30 µM (inactive)
[7]
  Kd: > 30 µM (inactive)
[8]
  Kd: > 30 µM (inactive)
[9]
  Kd: > 30 µM (inactive)
[10]
  Kd: > 30 µM (inactive)
[11]
  Kd: > 30 µM (inactive)
[12]
  Kd: > 30 µM (inactive)
[13]
  Kd: > 30 µM (inactive)
[14]
  Kd: > 30 µM (inactive)
[15]
  Kd: > 30 µM (inactive)

## Cc1ccc(NC(=O)c2ccc(CN3CC[C@H](N(C)C)C3)c(C(F)(F)F)c2)cc1Nc1nccc(-c2cncnc2)n1 [BAFETINIB]
[1]
  Kd: > 30 µM (inactive)
[2]
  Kd: > 30 µM (inactive)
[3]
  Kd: > 30 µM (inactive)
[4]
  Kd: 0.09 µM (active)
[5]
  Kd: > 30 µM (inactive)
[6]
  Kd: > 30 µM (inactive)
[7]
  Kd: > 30 µM (inactive)
[8]
  Kd: > 30 µM (inactive)
[9]
  Kd: > 30 µM (inactive)
[10]
  Kd: > 30 µM (inactive)
[11]
  Kd: > 30 µM (inactive)
[12]
  Kd: > 30 µM (inactive)
[13]
  Kd: > 30 µM (inactive)
[14]
  Kd: > 30 µM (inactive)
[15]
  Kd: > 30 µM (inactive)

## O=C(Nc1ccc(-c2ccnc(Nc3ccc(N4CCOCC4)cc3)n2)cc1)C1CCCN1 (stereo not given) [XL-019]
[1]
  Kd: > 30 µM (inactive)
[2]
  Kd: > 30 µM (inactive)
[3]
  Kd: > 30 µM (inactive)
[4]
  Kd: > 30 µM (inactive)
[5]
  Kd: > 30 µM (inactive)
[6]
  Kd: > 30 µM (inactive)
[7]
  Kd: > 30 µM (inactive)
[8]
  Kd: 0.006 µM (active)
[9]
  Kd: 0.02 µM (active)
[10]
  Kd: > 30 µM (inactive)
[11]
  Kd: > 30 µM (inactive)
[12]
  Kd: > 30 µM (inactive)
[13]
  Kd: > 30 µM (inactive)
[14]
  Kd: 3.62 µM (active)
[15]
  Kd: > 30 µM (inactive)

## C[C@@H]1CN(Cc2ccc(F)cc2)[C@@H](C)CN1C(=O)c1cc2c(C(=O)C(=O)N(C)C)cn(C)c2cc1Cl [TALMAPIMOD]
[1]
  Kd: > 30 µM (inactive)
[2]
  Kd: > 30 µM (inactive)
[3]
  Kd: > 30 µM (inactive)
[4]
  Kd: > 30 µM (inactive)
[5]
  Kd: > 30 µM (inactive)
[6]
  Kd: > 30 µM (inactive)
[7]
  Kd: > 30 µM (inactive)
[8]
  Kd: > 30 µM (inactive)
[9]
  Kd: > 30 µM (inactive)
[10]
  Kd: > 30 µM (inactive)
[11]
  Kd: > 30 µM (inactive)
[12]
  Kd: > 30 µM (inactive)
[13]
  Kd: > 30 µM (inactive)
[14]
  Kd: > 30 µM (inactive)
[15]
  Kd: > 30 µM (inactive)

## COc1cc(CCc2cc(NC(=O)c3ccc(N4C[C@@H](C)N[C@@H](C)C4)cc3)n[nH]2)cc(OC)c1 [AZD-4547]
[1]
  Kd: > 30 µM (inactive)
[2]
  Kd: > 30 µM (inactive)
[3]
  Kd: > 30 µM (inactive)
[4]
  Kd: > 30 µM (inactive)
[5]
  Kd: > 30 µM (inactive)
[6]
  Kd: > 30 µM (inactive)
[7]
  Kd: > 30 µM (inactive)
[8]
  Kd: > 30 µM (inactive)
[9]
  Kd: > 30 µM (inactive)
[10]
  Kd: > 30 µM (inactive)
[11]
  Kd: > 30 µM (inactive)
[12]
  Kd: > 30 µM (inactive)
[13]
  Kd: > 30 µM (inactive)
[14]
  Kd: > 30 µM (inactive)
[15]
  Kd: > 30 µM (inactive)

## Cc1cc([C@@H](C)Nc2ccccc2C(=O)O)c2nc(N3CCOCC3)cc(=O)n2c1 [AZD-6482]
[1]
  Kd: > 30 µM (inactive)
[2]
  Kd: > 30 µM (inactive)
[3]
  Kd: > 30 µM (inactive)
[4]
  Kd: > 30 µM (inactive)
[5]
  Kd: > 30 µM (inactive)
[6]
  Kd: > 30 µM (inactive)
[7]
  Kd: > 30 µM (inactive)
[8]
  Kd: > 30 µM (inactive)
[9]
  Kd: > 30 µM (inactive)
[10]
  Kd: > 30 µM (inactive)
[11]
  Kd: > 30 µM (inactive)
[12]
  Kd: > 30 µM (inactive)
[13]
  Kd: > 30 µM (inactive)
[14]
  Kd: > 30 µM (inactive)
[15]
  Kd: > 30 µM (inactive)

— ChEMBL document CHEMBL3991601, “The target landscape of clinical kinase drugs” (Science, 2017)
